Reference: patent US6921770B2 (priority 2000, dated 2005)
Read-outs that look alike come from different tables or passages of the source.

Legend:
rice blast fungi = assay type: in vivo, Pyricularia grisea
Pyricularia grisea = assay type: in vivo

Structure (SMILES) | Inhibiting Ratio (%) (at 250 ppm) (rice blast fungi) | other results
Cl.O=C(Cc1csc(=Nc2ccc(F)cc2F)n1C1CC1)Nc1ccc(Br)cc1 [Compound 258, 2-(2,4-difluorophenylimino)-3-cyclopropyl-4-[N-(4-bromophenyl)carbamoylmethyl]-1,3-thiazol-4-ine hydrochloride] | 91% | –
Cc1ccc(N=c2scc(CC(=O)Nc3ccc(Br)cc3)n2C2CC2)c(C)c1.Cl [Compound 263, 2-(2,4-dimethylphenylimino)-3-cyclopropyl-4-[N-(4-bromophenyl)carbamoylmethyl]-1,3-thiazol-4-ine hydrochloride] | 96% | –
Br.CC(C)Oc1cccc(N=c2scc(CC(=O)Nc3ccc(Cl)cc3)n2C)c1 [Compound 303, 2-(3-isopropoxyphenylimino)-3-methyl-4-[N-(4-chlorophenyl)carbamoylmethyl]-1,3-thiazol-4-ine hydrobromide] | 100% | –
Br.CCc1ccc(N=c2scc(CC(=O)Nc3ccc(Cl)cc3)n2C)cc1 [Compound 304, 2-(4-ethylphenylimino)-3-methyl-4-[N-(4-chlorophenyl)carbamoylmethyl]-1,3-thiazol-4-ine hydrobromide] | 100% | –
Br.Cn1c(CC(=O)Nc2ccc(Cl)cc2)csc1=Nc1ccccc1 [Compound 305, 2-phenylimino-3-methyl-4-[N-(4-chlorophenyl)carbamoylmethyl]-1,3-thiazol-4-ine hydrobromide] | 100% | –
Br.COc1ccc(NC(=O)Cc2csc(=Nc3ccccc3)n2C)cc1 [Compound 306, 2-phenylimino-3-methyl-4-[N-(4-methoxyphenyl)carbamoylmethyl]-1,3-thiazol-4-ine hydrobromide] | 93% | –
Br.COc1ccc(N=c2scc(CC(=O)Nc3ccc(OC)cc3)n2C)cc1 [Compound 307, 2-(4-methoxyphenylimino)-3-methyl-4-[N-(4-methoxyphenyl)carbamoylmethyl]-1,3-thiazol-4-ine hydrobromide] | 100% | –
Br.COc1ccc(N=c2scc(CC(=O)Nc3ccc(Cl)cc3)n2C)cc1 [Compound 308, 2-(4-methoxyphenylimino)-3-methyl-4-[N-(4-chlorophenyl)carbamoylmethyl]-1,3-thiazol-4-ine hydrobromide] | 99% | –
Br.COc1ccc(NC(=O)Cc2csc(=Nc3ccc(C)cc3)n2C)cc1 [Compound 309, 2-(4-methylphenylimino)-3-methyl-4-[N-(4-methoxyphenyl)carbamoylmethyl]-1,3-thiazol-4-ine hydrobromide] | 100% | –
Br.Cc1ccccc1N=c1scc(CC(=O)Nc2ccc(Cl)cc2)n1C [Compound 310, 2-(2-methylphenylimino)-3-methyl-4-[N-(4-chlorophenyl)carbamoylmethyl]1,3-thiazol-4-ine hydrobromide] | 100% | –
Br.COc1ccc(NC(=O)Cc2csc(=Nc3ccccc3OC)n2C)cc1 [Compound 311, 2-(2-methoxyphenylimino)-3-methyl-4-[N-(4-methoxyphenyl)carbamoylmethyl]-1,3-thiazol-4-ine hydrobromide] | 95% | –
Br.COc1ccc(NC(=O)Cc2csc(=Nc3ccccc3C)n2C)cc1 [Compound 312, 2-(2-methylphenylimino)-3-methyl-4-[N-(4-methoxyphenyl)carbamoylmethyl]-1,3-thiazol-4-ine hydrobromide] | 25% | –
Br.COc1ccc(NC(=O)Cc2csc(=Nc3ccc(OC(C)C)cc3)n2C)cc1 [Compound 313, 2-(4-isopropoxyphenylimino)-3-methyl-4-[N-(4-methoxyphenyl)carbamoylmethyl]-1,3-thiazol-4-ine hydrobromide] | 100% | –
Br.CC(C)Oc1ccc(N=c2scc(CC(=O)Nc3ccc(Cl)cc3)n2C)cc1 [Compound 314, 2-(4-isopropoxyphenylimino)-3-methyl-4-[N-(4-chlorophenyl)carbamoylmethyl]-1,3-thiazol-4-ine hydrobromide] | 100% | –
Br.COc1ccc(NC(=O)Cc2csc(=Nc3ccc(F)cc3)n2C)cc1 [Compound 315, 2-(4-fluorophenylimino)-3-methyl-4-[N-(4-methoxyphenyl)carbamoylmethyl]-1,3-thiazol-4-ine hydrobromide] | 97% | –
Br.Cn1c(CC(=O)Nc2ccc(Cl)cc2)csc1=Nc1ccc(F)cc1 [Compound 316, 2-(4-fluorophenylimino)-3-methyl-4-[N-(4-chlorophenyl)carbamoylmethyl]-1,3-thiazol-4-ine hydrobromide] | 100% | –
Br.Cn1c(CC(=O)Nc2ccc(Cl)cc2)csc1=Nc1ccc(Br)cc1 [Compound 317, 2-(4-bromophenylimino)-3-methyl-4-[N-(4-chlorophenyl)carbamoylmethyl]-1,3-thiazol-4-ine hydrobromide] | 100% | –
Br.COc1ccc(NC(=O)Cc2csc(=Nc3ccc(Br)cc3)n2C)cc1 [Compound 318, 2-(4-bromophenylimino)-3-methyl-4-[N-(4-methoxyphenyl)carbamoylmethyl]-1,3-thiazol-4-ine hydrobromide] | 100% | –

Structure (SMILES) | Inhibiting Ratio (%) (at 250 ppm) (rice blast fungi) | other results
Br.Cn1c(CC(=O)Nc2ccc(Cl)cc2)csc1=Nc1ccc(Oc2ccccc2)cc1 [Compound 319, 2-(4-phenoxyphenylimino)-3-methyl-4-[N-(4-chlorophenyl)carbamoylmethyl]-1,3-thiazol-4-ine hydrobromide] | 100% | –
Br.COc1ccc(NC(=O)Cc2csc(=Nc3ccc(Oc4ccccc4)cc3)n2C)cc1 [Compound 320, 2-(4-phenoxyphenylimino)-3-methyl-4-[N-(4-methoxyphenyl)carbamoylmethyl]-1,3-thiazol-4-ine hydrobromide] | 100% | –
Br.Cc1cc(C)c(N=c2scc(CC(=O)Nc3ccccc3)n2C)c(C)c1 [Compound 321, 2-(2,4,6-trimethylphenylimino)-3-methyl-4-N-phenylcarbamoyl methyl-1,3-thiazol-4-ine hydrobromide] | 97% | –
Br.Cc1ccccc1NC(=O)Cc1csc(=Nc2ccc(C#N)cc2)n1C [Compound 324, 2-(4-cyanophenylimino)-3-methyl-4-[N-(2-methylphenyl)carbamoylmethyl]1,3-thiazol-4-ine hydrobromide] | 90% | –
Br.Cn1c(CC(=O)Nc2ccccc2)csc1=Nc1ccc(Cl)c(Cl)c1 [Compound 325, 2-(3,4-dichlorophenylimino)-3-methyl-4-N-phenylcarbamoylmethyl-1,3-thiazol-4-ine hydrobromide] | 97% | –
Br.COc1ccc(NC(=O)Cc2csc(=Nc3ccc(C(C)(C)C)cc3)n2C)cc1 [Compound 326, 2-(4-butyl(t-)phenylimino)-3-methyl-4-[N-(4-methoxyphenyl)carbamoylmethyl]-1,3-thiazol-4-ine hydrobromide] | 97% | –
Br.COc1ccccc1NC(=O)Cc1csc(=Nc2ccc(C(C)(C)C)cc2)n1C [Compound 327, 2-(4-butyl(t-)phenylimino)-3-methyl-4-[N-(2-methoxyphenyl)carbamoylmethyl]-1,3-thiazol-4-ine hydrobromide] | 62% | –
Br.COc1ccc(NC(=O)Cc2csc(=Nc3cccc(C)c3)n2C)cc1 [Compound 328, 2-(3-methylphenylimino)-3-methyl-4-[N-(4-methoxyphenyl)carbamoylmethyl]-1,3-thiazol-4-ine hydrobromide] | 97% | –
Cn1c(CC(=O)Nc2ccc(Cl)cc2)csc1=Nc1ccc(C#N)cc1 [Compound 329, 2-(4-cyanophenylimino)-3-methyl-4-[N-(4-chlorophenyl)carbamoylmethyl]-1,3-thiazol-4-ine] | 100% | –
COc1ccc(NC(=O)Cc2csc(=Nc3ccc(C#N)cc3)n2C)cc1 [Compound 330, 2-(4-cyanophenylimino)-3-methyl-4-[N-(4-methoxyphenyl)carbamoylmethyl]-1,3-thiazol-4-ine] | 100% | –
Cn1c(CC(=O)Nc2ccccc2)csc1=Nc1ccc(F)cc1F [Compound 331, 2-(2,4-difluorophenylimino)-3-methyl-4-[N-phenylcarbamoylmethyl]-1,3-thiazol-4-ine] | 96% | –
Cc1ccc(NC(=O)Cc2csc(=Nc3ccc(F)cc3F)n2C)cc1 [Compound 332, 2-(2,4-difluorophenylimino)-3-methyl-4-[N-(4-methylphenyl)carbamoylmethyl]-1,3-thiazol-4-ine] | 100% | –
Cc1cccc(NC(=O)Cc2csc(=Nc3cc(OC(C)C)c(Cl)cc3F)n2C)c1 [Compound 333, 2-(2-fluoro-4-chloro-5-isopropoxyphenylimino)-3-methyl-4-[N-(3-methylphenyl)carbamoylmethyl]-1,3-thiazol-4-ine] | 98% | –
CCCCc1ccc(N=c2scc(CC(=O)Nc3ccc(OC)cc3)n2C)cc1 [Compound 334, 2-[4-(n-butyl)phenylimino]-3-methyl-4-[N-(4-methoxyphenyl)carbamoylmethyl]-1,3-thiazol-4-ine] | 96% | –
CCc1ccc(NC(=O)Cc2csc(=Nc3ccc(C#N)cc3)n2C)cc1.Cl [Compound 341, 2-(4-cyanophenylimino)-3-methyl-4-[N-(4-ethylphenyl)carbamoylmethyl]-1,3-thiazol-4-ine hydrochloride] | – | controlling effect on rice blast (Pyricularia grisea; 2 ppm, hydrochloride): 96%; controlling effect on rice blast (Pyricularia grisea; 10 ppm, hydrochloride): 98%; controlling effect on rice blast (Pyricularia grisea; 100 ppm, hydrochloride): 93%
Cc1ccc(NC(=O)Cc2csc(=Nc3cc(OC(C)C)c(Cl)cc3F)n2C)cc1.Cl [Compound 342] | – | controlling effect on rice blast (Pyricularia grisea; 2 ppm): 90%; controlling effect on rice blast (Pyricularia grisea; 10 ppm): 98%; controlling effect on rice blast (Pyricularia grisea; 100 ppm): 92%
COc1ccc(NC(=O)Cc2csc(=Nc3ccc(C(F)(F)F)cc3)n2C)cc1F.Cl [Compound 343, 2-(4-trifluoromethylphenylimino)-3-methyl-4-[N-(3-fluoro-4-methoxyphenyl)carbamoylmethyl]-1,3-thiazol-4-ine hydrochloride] | – | controlling effect on rice blast (Pyricularia grisea; 2 ppm): 90%; controlling effect on rice blast (Pyricularia grisea; 10 ppm): 94%; controlling effect on rice blast (Pyricularia grisea; 100 ppm): 98%
